Experiments:
[1] = Alcohol solubility of E6020 and MPL in ethanol by nephelometry
Procedure: The appearance and increase of opalescence, indicative of insolubility was followed by nephelometry.
RNU (Relative nephelometry Unit) of each solution was recorded and plotted on a graph.

sheep red blood cells = assay: Hemolysis assay; assay type: cell-based; conditions: 30 minutes at 37° C.
Procedure: Before use, red blood cells (Sheep red blood cells 10%, Rockland, ref R405-0050, lot BP30202 (stored+4° C.) were washed in cold PBS. Five mL of sheep red blood cells were transferred into a 15 mL Falcon tube and 7 mL of cold PBS were added. Cells were centrifuged for 10 min 700 g at 4° C. Supernatant was carefully removed and cell pellet was suspended in 12 mL of cold PBS. Then, cell suspension was centrifuged for 10 min, 700 g at 4° C. The cell suspension and centrifugation steps were repeated twice. Finally, cells were suspended in PBS in a final volume of 5 mL ready-to-use.
In a round bottom P96 plate, 100 μL per well of PBS were added. Then, 100 μL per well of saponin QS21 or QS7 solutions were added in serial 2-fold dilutions (1.6 μM to 200 μM-) in a citrate buffer (Citrate 10 mM, NaCl 140 mM, pH 6.3). […]
Twenty-five μL/well of 10% red blood cell solution were added, and the plates were incubated for 30 minutes at 37° C. and then were centrifuged for 5 min 700 g at room temperature. Eighty μL per well of surnageant were collected and transfered to a flat bottom plate for spectrophotometer reading (OD 540 nm). The percentage of cell hemolysis is calculated for each saponin concentration tested in μM according to the formula: 100×[(sample absorbance−negative control absorbance)[…](positive control absorbance−negative control absorbance)]. […]

Substance	appearance of ethanol solution (opalescence) ([1]; 0.5, 1.0, 2.0 and 10 mg/ml in absolute ethanol, mixed 3h at room temperature)	solubility in ethanol ([1]; absolute ethanol, room temperature (about 25° C.), nephelometry)	EC50 (sheep red blood cells; read-out: effective concentration inducing hemolysis of 50% red blood cells (EC50)) [µM]	erythrocyte hemolysis (sheep red blood cells; from 25 μM to 100 μM) [%]
3-O-desacyl-4′-monophosphoryl lipid A [MPL]	opalescent even at the lowest concentration tested	very low solubility		
QS21			4.2	100

From patent US20230398211A1, “Liposomes Containing TLR4 Agonist, Preparation and Uses Thereof” (priority 2020, published 2023)
